Where a SMILES comes first, the peptide text is derived from it. [ ]: non-standard residue; d: D form. The star is where a group is joined. Sta = CC(C)C[C@H](N)[C@@H](O)CC(=O)O; Isovaleryl = CC(C)CC(=O)*
Columns and labels:
purified chymotrypsin = test: Purified Protease Method: purified chymotrypsin; format: biochemical; conditions: pH 7.6, 25° C., read-out: IC50 Values, Purified Proteases, Chymotrypsin
Description: Standard in vitro assays for enzyme activity and inhibition of enzyme activity are well known. The reagents used to conduct these tests are generally commercially available. In general, a simple system comprises an enzyme-specific substrate which, when hydrolyzed by the enzyme, produces a colored product. The activity of the enzyme is measured spectrophotometrically as the degree of development of the colored product (i.e. the rate of color change) over a predetermined time period.
For the Purified Protease assay and the Fecal Protease assays described below, the IC50 for each inhibitor tested is calculated according to the following equation: IC50=[I]/[(v/vi)−1] where: [I] is the inhibitor concentration tested, v is the rate of substrate cleavage in the absence of inhibitor and vi is the rate of substrate cleavage in the presence of inhibitor.
The following Purified Protease and Fecal Protease Methods are utilized to determine the inhibitory activity of putative protease inhibitors against a) purified proteases known to exist in feces; and b) the protease activity of feces itself; respectively. […] In the Methods, v and vi are measured as the change in absorbance (optical density, OD) at a given wavelength/time (e.g., minutes).
To test the efficacy of protease inhibitors against purified chymotrypsin, 0.05 mL of a putative inhibitor and 0.125 mL of 16 nM chymotrypsin (e.g., Sigma, St. Louis, Mo., catalogue no. C8946) in chymotrypsin buffer (50 mM TRIS, 10 mM CaCl2, pH 7.6) are added to a microcuvette. […] To this mixture, 0.025 mL of substrate (0.6 mM N-Succ-Ala-Ala-Pro-Phe-p-nitroanilide, e.g., Sigma cat. no. S7388) in chymotrypsin buffer is added to the cuvette, mixed, and the absorbance at 405 nm measured over 10 minutes at 25° C. The rate of substrate cleavage in the presence of inhibitor (vi) is the slope of a plot relating the absorbance at 405 nm versus time. […] The rate of substrate cleavage in the absence of inhibitor (v) is the slope of a plot relating the absorbance at 405 nm versus time. […]

[1] = system: IL-1α production by cultured keratinocytes in the presence of feces; test: In Vitro Skin Test for Inhibition of IL-1α Production; format: cell-based, human
Source text: In an in vitro method to determine the efficacy of protease inhibitors in preventing the proinflammatory response of the skin to feces and fecal enzymes, human keratinocytes are obtained from epidermal tissue and cultured in serum free medium in plastic culture vessels containing a nylon mesh surface for a period of time until they are confluent. The mesh surface is then raised to the liquid air interface in order to promote differentiation and formation of multilayered organized layers analogous to those found in vivo, including a well defined stratum corneum barrier layer. Any cell culture system that promotes the growth and differentiation of keratinocytes, as described, may be employed. A commercially available cell culture system suitable for use in the invention is Epiderm (MatTek Corporation, Ashland, Mass.). Infant feces are collected in a manner to keep them free of urine contamination and diluted with phosphate-buffered saline (PBS) (pH 7.2-7.4.) The mixture is then mixed thoroughly to obtain a homogeneous suspension by homogenization or sonication. To assay for IL-1α production due to fecal enzyme activity, an aliquot of the homogenate is diluted with PBS and added to the surface of a control culture in a culture vessel. To assay for inhibition of IL-1α production due to protease activity, a predetermined quantity of a putative protease inhibitor is added to an otherwise identical diluted aliquot of the homogenate prior to adding it to the surface of a test culture. The cultures are allowed to incubate in a controlled atmosphere. At selected times, the control cultures and inhibitor-treated test cultures, and the underlying culture media are harvested. The culture media are assayed for the presence of IL-1α by known methods. For example, a suitable assay for IL-1α is an enzyme-linked immunoabsorbent method commercially available as Quantikine from R&D Systems, Minneapolis, Minn. The percent reduction in IL-1α production due to the presence of the protease inhibitor is calculated as follows: [formula] […]

Molecule	IC50 (purified chymotrypsin) [µM]	other results
CC(C)C[C@H](NC(=O)[C@@H](NC(=O)N[C@@H](Cc1ccccc1)C(=O)O)[C@@H]1CCN=C(N)N1)C(=O)N[C@H](C=O)Cc1ccccc1 [Chymostatin]	< 0.12	–
N=C(N)c1ccc(OCCCCCCOc2ccc(C(=N)N)cc2)cc1 [Hexamidine diisethionate, hexamidine diisethionate]	–	reduction of IL-1α production from skin cultures treated with feces ([1]; inhibitor concentration 100 μM): 5%; reduction of IL-1α production from skin cultures treated with feces ([1]; inhibitor concentration 1000 μM): 51-88%
CC(C)CC(=O)N[C@H](C(=O)N[C@H](C(=O)N[C@@H](CC(C)C)[C@@H](O)CC(=O)N[C@@H](C)C(=O)N[C@@H](CC(C)C)[C@@H](O)CC(=O)O)C(C)C)C(C)C [Pepstatin A] (Isovaleryl-VV[Sta]A[Sta]-OH)	4.9	–
Aprotinin	1	–
Soybean trypsin inhibitor: plant-derived trypsin inhibitor; serine protease inhibitor (protein, UniProt P01070 25-205, looked up) Trypsin inhibitor A: DFVLDNEGNPLENGGTYYILSDITAFGGIRAAPTGNERCPLTVVQSRNELDKGIGTIISSPYRIRFIAEGHPLSLKFDSFAVIMLCVGIPTEWSVVEDLPEGPAVKIGENKDAMDGWFRLERVSDDEFNNYKLVFCPQQAEDDKCGDIGISIDHDDGTRRLVVSKNKPLVVQFQKLDKESL	–	reduction of IL-1α production from skin cultures treated with feces ([1]; inhibitor concentration 10 μM): 56-75%
